Experiments:
Type in all cases: cell-based, human
TCC88 = assay: Cytokine and chemokine secretion of TCC88 after peptide stimulation; conditions: TCC88 supernatant after peptide stimulation; no peptide control subtracted; Fig. 3e
Description: (§1) Fig. 3 Bacteria-derived and microbiota-derived peptides can stimulate TCC88 as well as the tumour antigen. a, Peptides with the highest predicted stimulatory scores were identified by searching various databases (see Methods). Numbers of unique 10-mer peptides within each database, synthesized peptides, TCC88 stimulatory peptides and the corresponding percentage of stimulatory peptides within each database are shown. […] Cytokine and chemokine secretion of TCC88 was examined and compared upon stimulation with these three different antigens. A specific amount of each cytokine and chemokine (pg ml^−1) was calculated by subtracting the cytokines in the negative control cultures (no peptide control). f, Cytotoxicity of TCC88 against the autologous tumour cell line after stimulation with 2 µM of SIN3A* and HGM3 (data represent the mean percentage of two replicate wells). E:T, effector to target. g, TCC88 was tested with HGM3 (10 µM) or SIN3A* (10 µM) peptides or both together (each 10 µM), and ^3H-thymidine incorporation was measured after 3 days (data represent the mean SI value of three replicate wells ± s.e.m.). Also see Extended Data Figs. 3 and 4. Source data
Supernatants from each experiment were harvested a day before adding thymidine and frozen at −20 °C. Cytokines were measured using ELISA for human IFNγ ELISA MAX (BioLegend), human GM-CSF DuoSet ELISA (R&D Systems) and bead-based assays. A Synergy H1 hybrid multi-mode reader (Agilent) was used to measure the absorbance. The LEGENDplex Multi-analyte Flow Assay kit (BioLegend) is a 13-plex human TH cytokine panel, which includes IFNγ, TNF, IL-2, IL-4, IL-5, IL-6, IL-9, IL-10, IL-13, IL-17A, IL-17F, IL-21 and IL-22. […] LSR Fortessa Flow Cytometer (BD Biosciences) was used to measure cytokines, and data were analysed using FlowJo (Tree Star). The Human XL Cytokine Luminex Performance Assay Fixed Panel (R&D Systems) contains 45 analytes covering a broad range of various chemokines and cytokines.

[1] = test system: autologous glioblastoma cells; assay: T cell cytotoxicity assay of TCC88 against the autologous tumour cell line; conditions: TCC88 stimulated with 2 µM peptide for 72 h; E:T 1:1 and 5:1; 24 h; duplicates; Fig. 3f
Description: as §1, with “Source data […]” for “Source data”

[2] = test system: sorted CD4+ PE and FITC TCRVβ+ TILs; assay: Proliferation of TCRBV-sorted CD4+ TILs (without TCRBV6.1 and TCRBV6.2); conditions: sheet 6b
Description: TILs expressing specific TCRBVs were isolated from bulk TILs using a panel of 22 fluorescently labelled TCRBV antibodies that detect 27 different TCRBVs. Twelve TCRBV antibodies were labelled with PE and 10 with FITC (Beckman Coulter). […] After another wash, cells were stained with CD4 (1:100) (APC anti-human CD4, eBioscience), CD8 (1:100) (Pacific blue anti-human CD8, BioLegend), TCRBV-PE (1:25) (Beckman Coulter) and TCRBV-FITC (1:25) (Beckman Coulter) antibodies (Supplementary Table 12) for 30 min. Finally, cells were sorted, seeded at 5 × 10^4 cells per well in T cell medium without h-IL-2 and rested for 1 day before stimulation with 2 × 10^5 cells per well of irradiated autologous PBMCs (45 Gy) and peptide (10 µM).
Two populations of CD4^+ PE-TCRVβ^+ and CD4^+ FITC-TCRVβ^+ were sorted and later mixed together. […] Specific amount of each cytokine/chemokine (pg/ml) was calculated by subtracting the cytokines in the negative control cultures (no peptide control). Source data

Substance: Ac-LLEFNHSLGM-NH2 [HGM3]
- CCL20/MIP-3α (TCC88): 6.47 pg/mL
- CD40 Ligand (TCC88): 1548.01 pg/mL
- CXCL1/GROα (TCC88): 80.23 pg/mL
- CXCL2/GROβ (TCC88): 106.77 pg/mL
- CXCL8/IL-8 (TCC88): 0 pg/mL
- CXCL10/IP-10 (TCC88): 30.99 pg/mL
- Flt-3 Ligand (TCC88): 108.26 pg/mL
- Fractalkine (TCC88): 325.67 pg/mL
- GM-CSF (TCC88): 4861.7 pg/mL
- Granzyme B (TCC88): 2019.57 pg/mL
- IFN-α (TCC88): 2.54 pg/mL
- IFN-γ (TCC88): 781.13 pg/mL
- IL-1rα (TCC88): 2003.66 pg/mL
- IL-1α (TCC88): 12.29 pg/mL
- IL-1β (TCC88): 17.76 pg/mL
- IL-2 (TCC88): 80.09 pg/mL
- IL-3 (TCC88): 109.49 pg/mL
- IL-4 (TCC88): 85.48 pg/mL
- IL-5 (TCC88): 32.99 pg/mL
- IL-6 (TCC88): 151.16 pg/mL
- IL-7 (TCC88): 0.74 pg/mL
- IL-10 (TCC88): 3974.26 pg/mL
- IL-12p70 (TCC88): 26.12 pg/mL
- IL-13 (TCC88): 1591.43 pg/mL
- IL-15 (TCC88): 2.07 pg/mL
- IL-17A (TCC88): 1.97 pg/mL
- IL-17E/IL-25 (TCC88): 0 pg/mL
- IL-33 (TCC88): 17.4 pg/mL
- TNF-α (TCC88): 4132.48 pg/mL
- cytotoxic activity against autologous glioblastoma cells (in words) [1]: comparable
- Proliferation (SI) of sorted CD4+ TILs ([2]; replicate 1): 1.141
- Proliferation (SI) of sorted CD4+ TILs ([2]; replicate 2): 1.14
- Proliferation (SI) of sorted CD4+ TILs ([2]; replicate 3): 1.525

Reference: article PMC10208956, “Microbial peptides activate tumour-infiltrating lymphocytes in glioblastoma” (Nature, 2023)
